# Laboratory results: paper PMC6316600, “Analgesic Activity of Acid-Sensing Ion Channel 3 (ASIС3) Inhibitors: Sea Anemones Peptides Ugr9-1 and APETx2 versus Low Molecular Weight Compounds” (Marine Drugs, 2018)
# Entries after “also recorded” stand apart in the source; their conditions may differ. Bridge positions count the residues as written; N and C are the ends. Peptide text beside a SMILES is read from it.
# Key:
# [1] = biological target: T1, human ASIC3 (Homo sapiens, UniProt Q9UHC3); test: Inhibition of transient hASIC3 current, two-electrode voltage clamp, Xenopus laevis oocytes; assay type: cell-based
# T1 construct: host or cells: Xenopus laevis oocytes (cRNA injection)
# T1 sequence (Q9UHC3 1-531): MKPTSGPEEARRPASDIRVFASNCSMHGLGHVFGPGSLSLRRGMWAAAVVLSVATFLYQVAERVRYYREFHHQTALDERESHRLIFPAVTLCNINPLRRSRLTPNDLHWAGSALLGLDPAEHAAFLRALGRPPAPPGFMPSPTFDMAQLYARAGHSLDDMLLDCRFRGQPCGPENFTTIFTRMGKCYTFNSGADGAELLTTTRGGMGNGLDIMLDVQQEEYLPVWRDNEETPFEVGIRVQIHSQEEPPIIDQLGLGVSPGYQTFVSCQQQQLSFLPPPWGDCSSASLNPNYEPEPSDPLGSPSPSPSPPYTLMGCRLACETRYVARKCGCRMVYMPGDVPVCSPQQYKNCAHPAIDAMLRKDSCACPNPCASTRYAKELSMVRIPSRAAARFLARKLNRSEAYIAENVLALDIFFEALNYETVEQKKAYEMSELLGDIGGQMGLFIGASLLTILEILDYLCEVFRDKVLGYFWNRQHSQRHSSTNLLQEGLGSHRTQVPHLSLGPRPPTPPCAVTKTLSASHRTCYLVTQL
# Procedure: The activity of ligands was checked on human ASIC3 (hASIC3) channels expressed in Xenopus laevis oocytes. […] Two different protocols were used to reveal the effects of ligands on sustained and transient components of acid-induced hASIC3 currents. The influence of the compounds on the transient current amplitude was estimated after preincubation for 15 s before the activation in a low alkali bath solution (pH 7.8), which ensured an absence of steady-state desensitization for the transient current (Figure 1A). The compounds’ inhibition effectiveness was calculated using the value of maximal amplitudes. […] The inhibitory effect was concentration-dependent and fit well using a logistic equation.
# Figure 1 Comparison of ligands’ antagonistic effects on hASIC3 channels. Whole-cell currents were induced by pH drops and recorded at the holding potential −50 mV. (A) Effect of ligands on the transient component of current at conditioning pH 7.8. The control trace is shown first; (B) Effect of ligands on the sustained component at conditioning pH 7.3. The black line is the control trace, and the red line is the trace of activation in the presence of a ligand. Dose-response curves for transient (C) and sustained (D) currents’ inhibitions are shown. Data are shown as mean ± SEM (n = 4–6) and fitted with the logistic equation (solid lines).
# X. laevis oocytes were removed surgically and defolliculated by collagenase (Sigma-Aldrich, Moscow, Russia). Oocytes were injected with 2.5 to 10 ng of human ASIC3 cRNA (AF057711.1). The cRNA transcripts were synthesised from a NaeI-linearized ASIC3 cDNA template (pcDNA3.1+humanASIC3 subcloned from clone EX-Q0260- B02 (GeneCopoeia, Inc., Rockville, MD USA) using a HiScribe T7 High Yield RNA Synthesis Kit (New England Biolabs, Ipswich, MA, USA) according to the manufacturer’s protocol for capped transcripts. After the injection, oocytes were kept for 3 to 6 days at 19° in a ND-96 medium containing (in mM) 96 NaCl, 2 KCl, 1.8 CaCl2, 1 MgCl2, and 5 HEPES titrated to pH 7.4 with NaOH supplemented with gentamycin (50 µg/mL). Two-electrode voltage clamp recordings were performed using a GeneClamp 500 amplifier (Axon Instruments, Union City, CA, USA), and the data were filtered at 20 Hz and digitized at 100 Hz by an AD converter L780 (LCard, Moscow, Russia) using in-house software. To induce transient and/or sustained currents, two different protocols with different conditioning pH were used. Microelectrodes were filled with a 3 M KCl solution. The working buffer solution was ND-96 titrated by NaOH to pH 7.8 or 7.3. The solution for the pH shift was constructed based on the ND-96 solution, in which 5 mM HEPES was replaced with 10 mM acetic acid (pH 4.0) or 10 mM MES (pH 5.5) in a supplementary 0.1% BSA solution. The duration of the activation pulses was 3.5 s.
# The analysis of the electrophysiological data was performed using the OriginPro 8.6 programme.
# [2] = test system: mice; test: CFA-induced paw oedema; assay type: in vivo, CD-1 mice; settings: n = 7–8; for Reduction of inflammation (paw oedema): within 24 h; for Anti-inflammatory effect within 4 h: intramuscular, within 4 h after administration
# Procedure: To reveal the anti-inflammatory effects of ASIC3 antagonists, paw oedema changes were also evaluated (Figure 5). […] APETx2 in a dose of 1 mg/kg reduced paw oedema by 16%, 24%, and 44% compared to the control group at 2, 4, and 24 h after administration, respectively. APETx2 at 0.2 mg/kg reduced inflammation by approximately 20% only 24 h after administration.
# Figure 5 Anti-inflammatory effect of ligands. […] Results are presented as mean ± SEM (n = 7–8). * p < 0.05, ** p < 0.01, *** p < 0.001 versus saline group (ANOVA followed by a Tukey’s test).
# Adult male CD-1 mice (Animal Breeding Facility Branch of Shemyakin-Ovchinnikov Institute of Bioorganic Chemistry, Russian Academy of Sciences, Pushchino, Russia) weighing 20–25 g were used. Animals that originally passed clinical examination that confirmed no deviations in health were divided into groups (at least eight male mice per group) using the principle of randomization. The average body weight of animals in each group was not statistically different between groups. Animals were housed at room temperature (23 ± 2 °C) and subjected to a 12-h light-dark cycle with food and water available ad libitum. All experiments were performed after receiving approval from the Animal Care and Use Committee of the Branch of the Institute of Bioorganic Chemistry, Russian Academy of Sciences (IBCh RAS) (Pushchino, Russia Federation). The samples were administered intramuscularly 2 h before testing (4 h in the open field test). The initial dose of 1 mg/kg was investigated for all samples, which was further reduced 5, 50, and 500 times for peptides.
# CFA suspended in an oil/saline (1:1) emulsion was injected into the dorsal surfaces of the left hind paws of mice (20 µL/paw) 24 h before the samples’ intramuscular injection. The control mice received 20 µL of saline (intraplantar). The paw withdrawal latencies to thermal stimulation (53 °C) were measured 2 h after the sample injection. The paw diameter was evaluated before the CFA injection, before the samples and saline administration, and 2, 4, and 24 h after the administration using a digital calliper.
# The data significance in animal tests was determined by an analysis of variance followed by a Tukey’s test. Data are presented as the mean ± SEM.
# [3] = hASIC3 in X. laevis oocytes, conditioning pH 7.8, mean ± SEM (n = 4–6)
SMILES,"Rank of in vitro potency, transient component of hASIC3 current [1]",Inhibition of transient current (in words) ([1]; conditioning pH 7.8),"IC50 ([1]; hASIC3 in X. laevis oocytes, conditioning pH 7.8, 15 s preincubation, holding -50 mV, logistic fit, mean ± SEM (n = 4–6), read-out: IC50, transient currents) [µM]","Hill coefficient, transient currents [1, 3]",Lower efficacy in vitro relative to APETx2 ([1]; sevanol versus APETx2) [fold],Lower efficacy in vitro relative to Ugr9-1 ([1]; sevanol versus Ugr9-1) [fold],Reduction of inflammation (paw oedema) ([2]; 2.5 mg/kg intramuscular) [%],Anti-inflammatory effect within 4 h [2],Concentration needed to block transient current relative to APETx2 ([1]; Ugr9-1 versus APETx2) [times],Lower efficacy in inhibition of the transient component relative to APETx2 ([1]; Ugr9-1 versus APETx2) [times],Reduction of inflammation (paw oedema) ([2]; 0.02 mg/kg intramuscular) [%]
O=C(O)C[C@H](C(=O)O)[C@@H](OC(=O)C1=Cc2cc(O)c(O)cc2[C@@H](c2ccc(O)c(O)c2)[C@@H]1C(=O)O[C@@H](C(=O)O)[C@H](CC(=O)O)C(=O)O)C(=O)O [sevanol],APETx2 > Ugr9-1 > sevanol,had much less potency and inhibited transient currents in submillimolar concentrations; also recorded: complete inhibition was observed; also recorded: decreased transient and sustained components of the current,331 ± 21,1.98 ± 0.24,1000,35,22,did not produce significant anti-inflammatory effects within 4 h,–,–,–
"O=C(O)Cc1ccccc1Nc1c(Cl)cccc1Cl [diclofenac, reference compound]",–,not detected,–,–,–,–,–,did not produce significant anti-inflammatory effects within 4 h,–,–,–
"CC[C@H](C)[C@H](N)C(=O)N[C@@H](CO)C(=O)N[C@H](C(=O)N[C@@H](CC(=O)O)C(=O)N1CCC[C@H]1C(=O)N1CCC[C@H]1C(=O)N[C@H]1CSSC[C@@H](C(=O)NCC(=O)N[C@@H](C)C(=O)N[C@H](C(=O)O)C(C)C)NC(=O)CNC(=O)[C@H](Cc2ccc(O)cc2)NC(=O)[C@H](C)NC(=O)[C@H](CC(=O)O)NC(=O)[C@H](Cc2ccc(O)cc2)NC(=O)[C@H](C(C)C)NC(=O)[C@@H]2CSSC[C@H](NC(=O)[C@H](Cc3ccccc3)NC(=O)[C@H](CCCNC(=N)N)NC1=O)C(=O)N[C@@H](Cc1ccc(O)cc1)C(=O)N[C@@H](Cc1c[nH]cn1)C(=O)N[C@@H](CCCNC(=N)N)C(=O)N[C@@H](CC(=O)O)C(=O)NCC(=O)N[C@@H](CO)C(=O)NCC(=O)N[C@@H](CC(N)=O)C(=O)N2)[C@@H](C)CC [Ugr9-1] (H-ISIDPPCRFCYHRDGSGNCVYDAYGCGAV-OH; disulfide 7-26, 10-19; N-terminus and C-terminus assumed)",APETx2 > Ugr9-1 > sevanol,completely blocked the transient current of ASIC3; also recorded: decreased transient and sustained components of the current,–,1.86 ± 0.16,–,–,–,did not produce significant anti-inflammatory effects within 4 h,30,30,31
